Laboratory results from patent publication US20220288051A1, “METHODS FOR TREATING CANCER USING SERIAL ADMINISTRATION OF E3 UBIQUITIN LIGASE DEGRADERS” (Dana-Farber Cancer Institute, Inc., priority 2019, published 2022).

How the values were obtained:
MDR1 transporter = MDR1 transporter (Homo sapiens, UniProt P08183); conditions: stated as fact; cited from earlier work
MM.1S-dCas9-VP64 cells = assay: Genome-scale CRISPR gene activation resistance screens; assay type: cell-based, human; conditions: Calabrese library; successive rounds of treatment
Procedure: We also performed genome-scale CRISPR-based gene-activation screens, which followed the “long-term” configuration of the gene editing studies.
For the genome-scale screen with the Calabrese sgRNA library, tumor cells were transduced in batches of 3×10^7 cells per sublibrary for triplicates. Cells were incubated (18 h) in cell medium containing polybrene (4 μg/mL; Santa Cruz Biotechnology), 10 mM HEPES (pH 7.4) (Sigma-Aldrich) and viral prep (30 mL) diluted 1:1. Transduced cells were cultured at an initial density of 1×10^6 cells/mL and were treated with puromycin (1 μg/mL) for up to 7 days additional two days from transduction. After stable transduction, pooled MM.1S cells were plated at 30×10^6 cells per flask (T175, 100 mL) to enable coverage of 500× and were sub-cultured at three- to four-day intervals to prevent confluence. […]
Cells were immediately harvested (30×10^6) and sgRNA distribution assessed, by next generation sequencing.
iv. […] DNA concentration was quantified by UV-spectroscopy (NanoDrop 8000; ThermoFisher Scientific). […] Multiplexed samples were then sequenced at the Molecular Biology Core Facility (Dana-Farber Cancer Institute) and/or The Genomics Platform (Broad Institute) using an Illumina NextSeq 500 (Illumina, San Diego, Calif.), allowing […] individual reads per multiplexed sample.

pools of MM cells = assay: Sequential exposure to CRBN- and VHL-based degraders, CTG; assay type: cell-based, human; conditions: compared to treatment-naïve cells
From the text: We addressed this question using pools of MM cells derived from several of our genome-scale CRISPR-based screens.

MM.1S-Cas9+ cells = assay: Genome-scale CRISPR/Cas9 gene editing (LOF) resistance screens; assay type: cell-based, human; conditions: 25 nM for 48 hrs; Brunello library
BRD3 = target: T1, BRD3 (Homo sapiens, UniProt Q15059); assay: Immunoblotting of degronimid-treated MM.1S cells: BRD3; assay type: cell-based; conditions: 0.01-1 μM, 4 h
T1 construct: endogenous in cells; host or cells: MM.1S
T1 sequence (Q15059 whole entry): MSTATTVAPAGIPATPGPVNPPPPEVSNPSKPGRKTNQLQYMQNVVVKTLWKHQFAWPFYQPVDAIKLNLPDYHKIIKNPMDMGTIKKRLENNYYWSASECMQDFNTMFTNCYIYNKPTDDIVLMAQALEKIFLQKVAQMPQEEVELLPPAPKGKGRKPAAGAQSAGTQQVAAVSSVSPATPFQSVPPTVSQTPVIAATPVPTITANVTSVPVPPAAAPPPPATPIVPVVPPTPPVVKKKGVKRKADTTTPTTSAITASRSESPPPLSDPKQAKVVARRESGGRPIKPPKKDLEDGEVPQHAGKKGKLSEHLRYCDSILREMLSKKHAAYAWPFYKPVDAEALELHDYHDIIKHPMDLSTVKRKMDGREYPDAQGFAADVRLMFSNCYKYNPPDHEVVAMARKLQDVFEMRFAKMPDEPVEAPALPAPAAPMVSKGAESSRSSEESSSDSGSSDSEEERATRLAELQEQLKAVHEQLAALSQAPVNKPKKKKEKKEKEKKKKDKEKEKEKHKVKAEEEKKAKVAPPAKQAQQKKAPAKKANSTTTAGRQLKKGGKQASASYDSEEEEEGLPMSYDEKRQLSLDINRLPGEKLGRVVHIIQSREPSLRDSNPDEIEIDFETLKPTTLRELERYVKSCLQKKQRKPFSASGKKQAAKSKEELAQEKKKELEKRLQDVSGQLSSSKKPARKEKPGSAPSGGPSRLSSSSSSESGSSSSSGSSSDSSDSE
Procedure: MM.1S cells were seeded in 6-well plates at 3×10^6 cells/well (˜24 h prior to addition of drug). […] Cell pellets were thawed on ice, lysed using RIPA buffer (ThermoFisher) with protease/phosphatase inhibitor cocktail (Cell Signal Technology, Danvers, Mass.) by incubating on ice 30 min. The lysates were clarified by spinning at 10,000 g for 10 min at 4° C. and the concentration of the lysate was determined using BCA protocol (ThermoFisher). Samples were prepared for Western blot using LDS sample buffer (NuPage, Invitrogen, Carlsbad, Calif., USA) with sample reducing agent (NuPage, Invitrogen) and heated to 95° C. for 5 min. Samples were loaded (20 ug/sample) into Tris-acetate or Bis-Tris gels (NuPage, Invitrogen) and run as per kit instructions using appropriate running buffers. Gels were transferred as described (Matthews et al., 2015) onto PVDF membrane using SDS-based transfer buffer (NuPage, Invitrogen). Membranes were blocked (5% skim milk; or 5% bovine serum albumin in TBS-T) for at least 30 min then probed with primary antibodies overnight (4° C.). […] Each protein of interest (BRD2, BRD3, BRD4, c-myc and CDK9) was assessed in a separate gel and corresponding membrane (which was simultaneously incubated with antibodies for both the target protein of interest and GAPDH, to provide a loading control within the same blot). […]

[1] = test system: OPM1, OCI-MY5, KMS11 and OPM2 (shRNAs against CRBN); assay: CTG viability of MM cell lines with low CRBN levels; assay type: cell-based, human; conditions: low but detectable CRBN, constitutive or shRNA
From the text: Human MM cell lines KMS11 and OPM-2 expressing non-targeting control shRNAs or shRNA.

Sequence of MDR1 transporter (P08183 whole entry): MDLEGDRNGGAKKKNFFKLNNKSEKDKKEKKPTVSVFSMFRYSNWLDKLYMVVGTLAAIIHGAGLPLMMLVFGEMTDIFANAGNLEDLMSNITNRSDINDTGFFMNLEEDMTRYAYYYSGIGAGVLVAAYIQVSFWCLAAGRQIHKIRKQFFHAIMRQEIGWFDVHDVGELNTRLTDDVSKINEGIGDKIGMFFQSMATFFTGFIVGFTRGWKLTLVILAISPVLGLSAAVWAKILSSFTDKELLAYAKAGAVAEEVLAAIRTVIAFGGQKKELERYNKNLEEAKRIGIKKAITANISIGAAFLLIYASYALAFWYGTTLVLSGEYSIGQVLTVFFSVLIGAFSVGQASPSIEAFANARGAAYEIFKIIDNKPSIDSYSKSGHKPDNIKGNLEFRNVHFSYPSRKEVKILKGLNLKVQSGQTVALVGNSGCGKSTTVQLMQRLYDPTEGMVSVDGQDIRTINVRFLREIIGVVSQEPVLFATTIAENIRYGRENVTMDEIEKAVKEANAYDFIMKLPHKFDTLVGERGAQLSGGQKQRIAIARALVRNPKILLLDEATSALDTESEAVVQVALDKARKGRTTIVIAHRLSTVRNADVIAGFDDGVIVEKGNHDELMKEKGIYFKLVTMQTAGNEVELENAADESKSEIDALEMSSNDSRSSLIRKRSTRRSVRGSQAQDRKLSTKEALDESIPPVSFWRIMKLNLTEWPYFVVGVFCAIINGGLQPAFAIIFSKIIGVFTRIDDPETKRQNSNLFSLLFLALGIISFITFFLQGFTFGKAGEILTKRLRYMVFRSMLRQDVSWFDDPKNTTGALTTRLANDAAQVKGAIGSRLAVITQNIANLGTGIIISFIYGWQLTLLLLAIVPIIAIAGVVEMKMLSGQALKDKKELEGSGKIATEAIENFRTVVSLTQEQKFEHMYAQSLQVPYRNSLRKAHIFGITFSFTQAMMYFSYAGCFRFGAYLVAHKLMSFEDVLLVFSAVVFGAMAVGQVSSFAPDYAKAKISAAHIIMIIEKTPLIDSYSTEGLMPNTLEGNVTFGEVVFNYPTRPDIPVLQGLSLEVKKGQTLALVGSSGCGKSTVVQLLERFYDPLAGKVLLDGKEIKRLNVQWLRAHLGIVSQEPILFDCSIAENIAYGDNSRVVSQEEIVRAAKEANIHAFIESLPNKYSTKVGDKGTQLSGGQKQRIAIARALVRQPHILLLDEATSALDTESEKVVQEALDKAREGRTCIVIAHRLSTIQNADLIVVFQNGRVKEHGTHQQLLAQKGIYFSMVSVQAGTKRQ

Row | SMILES | MDR1 substrate (MDR1 transporter) | sgRNA enrichment, gene activation screen (MM.1S-dCas9-VP64 cells) | response of pools previously exposed to ARV771 and then MZ1 (pools of MM cells) | shift of dose response curve in pools previously exposed to CRBN-based degraders (pools of MM cells) | sgRNA enrichment, short-term screen (MM.1S-Cas9+ cells) | BRD3 protein levels (BRD3) | response of lines with low CRBN levels [1]
1 | Cc1ncsc1-c1ccc([C@H](C)NC(=O)[C@@H]2C[C@@H](O)CN2C(=O)[C@@H](NC(=O)COCCCOCCNC(=O)C[C@@H]2N=C(c3ccc(Cl)cc3)c3c(sc(C)c3C)-n3c(C)nnc32)C(C)(C)C)cc1 [ARV-771] | MDR1 substrates | ABCB1, the gene for the MDR1 transporter, was commonly identified as the only gene with sgRNA enrichment | significantly decreased responsiveness | limited, if any, shift |  |  | 
2 | CC(C)(C)c1cnc(CSc2cnc(NC(=O)C3CCN(CC(=O)NCCOCCOCCOCCNc4cccc5c4C(=O)N(C4CCC(=O)NC4=O)C5=O)CC3)s2)o1 (centres unmarked) [Thal-SNS-032] |  |  |  | major shifts to the right | CRBN is the top gene in terms of sgRNA enrichment |  | 
3 | Cc1sc2c(c1C)C(c1ccc(Cl)cc1)=N[C@@H](CC(=O)NCCCCCCCCNC(=O)COc1cccc3c1C(=O)N(C1CCC(=O)NC1=O)C3=O)c1nnc(C)n1-2 (some centres unmarked) [dBET6] | MDR1 substrates | ABCB1, the gene for the MDR1 transporter, was commonly identified as the only gene with sgRNA enrichment |  |  | CRBN is the top gene in terms of sgRNA enrichment | rapid and robust depletion | remained responsive to dBET6
